The values below come from patent US11001795B2, “In vitro gastrointestinal model comprising lamina propria-derived cells” (EMULATE, Inc., priority 2016, dated 2021).

Data set [1] concerns Ulcerative Colitis patients. The settings on record: cited from earlier work.
For data set [2], the system named is Caco-2/HUVEC/LPDC microfluidic co-cultures. Kind of data set: Cytokine and chemokine production in microfluidic co-cultures with LP derived cells. In kind it is cell-based, human. As for the experimental part: An exemplary bacteria antigen used was PAM2CSK4. […] PAM2CSK4 refers to a synthetic diacylated lipopeptide.
In order to determine contributory factors to the trends in permeability changes observed by combinations of prednisone treatments as in Example 5, cytokine and chemokine production were measured from media samples obtained from the microfluidic cultures as described in Example 5. After an incubation time, media samples were extracted from the microfluidic device then used for determining amounts of cytokine and chemokine produced, such as IL-6 and IL-9 in FIG. 18A-B; IL-8 and G-CSF in FIG. 19A-B; GM-CSF and MCP-1 in FIG. 20A-B: MIP1b and PDGF-AB/BB in FIG. 21A-B; and RANTES in FIG. 22. Amounts of cytokine and chemokine protein are measure in pg/ml (picogram per milliliter).

Data set [3] has as its system Caco-2 epithelial cell layer. In kind it is cell-based, human. From the text:
See an exemplary permeability assay method in Example 4.
Effects of resident leukocytes isolated from LP

Data set [4] relates to Intestine On-Chip with TH1 or TH9 cells. Kind of data set: Cytokine production in Intestine On-Chip seeded with plate-differentiated TH1 or TH9 cells. Particulars: for IL-10: TH9 populations; for IL-6 protein: untreated vs PAM2CSK4 treated with and without Tofacitinib. The class given is cell-based, human. From the text: In this example, a TH1 cell population was produced from a population of mature/naive CD4+ T cells, as described in Example 7. This population of CD4+ T cells were co-stimulated with adhered CD3 and soluble CD28 antibodies, without added cytokines, for inducing differentiation of TH1 cells on plates. Unlike co-stimulation with adhered CD3 and soluble CD28 antibodies in the presence of TGFB, IL-4, and IFNg cytokines which induced differentiation of TH9 cells, as described herein. Thus, in this example, purified CD4+ T cell populations were plated into tissue culture plates for activation and differentiation into one selected T cell subtype, e.g. TH1 in one plate, and TH9 in another plate.
In order to further test whether PBMCs activated and differentiated with soluble factors were capable of inducing inflammation on chips, pro-inflammatory cytokine production was compared between untreated, PAM2CSK4 treated with and without Tofacitinib.
Experiments were designed to evaluate whether anti-CD3 and anti-CD28 co-stimulatory activation (soluble reagents) on chip would stimulate on chip T cells (previously activated and differentiated on plates) to continue functioning as activated effector cells within the chip tissue microenvironment. Further, TH1 and TH9 T cell populations underwent testing for an exacerbated response (either tissue alterations or changes in the characteristics of the T cell population) to a specific antigen stimulation, e.g. PAM2CSK4 (TLR2) bacterial agonist, with or without additional co-stimulation (i.e. using soluble reagents). Stimulation on-chip was done as a treatment on Day 7 of culture.
Evaluation of the effects of T-cell activation on the Intestine On-Chip by perfusion of soluble immune activating factors (anti-CD3 and anti-CD28) to the media is shown in FIGS. 36A-B-39A-C. In particular, activated T-cell subsets were evaluated for disease-specific cytokine production.
T cell subsets were purified from PBMCs as described herein, then stimulated in tissue culture plates using plate bound CD3 and soluble CD28 antibodies.

Data set [5] deals with TH1 and TH9 CD4+ T cell populations. Kind of data set: Bacterial antigen stimulation of TH1 and TH9 populations on cell culture plates. In kind it is cell-based, human. As for the experimental part: Purified human CD4+ cells in tissue culture media, comprising soluble anti-human CD28 mAb (e.g. PharMingen, San Diego, Calif.), were added to CD3 coated plastic tissue culture plates for non-antigen-specific activation. Co-stimulation of the CD3 transmembrane signaling complex and the T cell CD28 molecule results in nonantigen specific stimulation of the TCR (CD3). After three days of incubation, the default T cell population is considered a TH1 population. After three days of co-stimulation, with or without added cytokines, cells are pipetted out of the plates, the plates are washed with media or PBS to remove any remaining cells, then harvested cells are washed at least 3 times to remove cell fragments and culture reagents, prior to use of the activated T cell population for seeding microfluidic chips on Day 0 of the chip timeline.
In this example, a TH1 cell population was produced from a population of CD4+ T cells obtained from a sample of PBMCs. This population of CD4+ T cells were co-stimulated with soluble CD3 and CD28 antibodies without added cytokine stimulation for inducing differentiation of TH1 cells. Unlike the co-stimulation with soluble CD3 and CD28 antibodies in the presence of TGFB, IL-4, and IFNg cytokines for inducing differentiation of TH9 cells as described herein.
A sample of each TH cell type was exposed to PAM2CSK4, then log 2 fold changes in protein expression of either pathway molecules or IL-9 were measured and compared to duplicate samples not treated with PAM2CSK4.

In data set [6] the test system is UC patient's resident immune cells. Kind of data set: 24 hour bacterial challenge of resident immune cells cultured on-plates, secreted cytokines. The class given is cell-based, human. Particulars: immune cells from inflamed UC tissue, 24 hour challenge.
The mark [7] stands for this setting: prednisone alone, non-inflamed LPDC.
The mark [8] stands for this setting: prednisone, inflamed LPDCs, with and without PAM2CSK4.
[9] abbreviates: prednisone, non-inflamed and inflamed LPDCs treated with PAM2CSK4.

“Also recorded” adds a separate entry of the source.

From the text for Caco-2 epithelial layer: The following exemplary protocol outlines the sterilization/functionalization, coating, media wash, and cell seeding steps for preparing the Intestine-on-Chip with epithelial cells, e.g. Caco-, human primary epithelial cells, etc., HUVECs, and resident immune cells from lamina propria-derived cells.
An exemplary experimental chip culture schedule is presented as a timeline starting from Day 0 (seeding chips) by adding HUVEC cells and lamina propria-derived cells; Day 1 was seeding a top layer of epithelial cells and connecting to a flow system; by Day 7 treatments, such as adding PAM2CSK4; and starting Day 8 testing layers and/or removing samples for further analysis. A sample such as effluent was tested for cytokine section from cells. Other samples removed were histological samples for fixation and ICC (immunocytochemistry) such as for determining cellular appearance, determination of tight junction integrity, such as by staining for actin, ZO-1, intracellular cytokine co-localization, etc, and physiological testing, such as migration of particles through the extracellular regions of the epidermal layer. Additional tests may include RNA isolation for determining gene expression levels, such as for proteins involved with tight junction formation, cytokine expression, etc.
The chips treated with PAM2CSK4 as a model bacterial antigen are considered infected chips. […]

On to `C[C@]12C=CC(=O)C=C1CC[C@@H]1[C@@H]2C(=O)C[C@@]2(C)[C@H]1CC[C@]2(O)C(=O)CO` [prednisone], for which, in data set [1] (Ulcerative Colitis patients), the Treated patients non-responsive result is on record as “around 16%”, the “Treated patients with full remission” value was 54% and the “Treated patients with partial remission” value is on record as 30%. The “Undesirable Side Effects” value in data set [1] (in vivo) was “increased Risk of infection, Weight gain, Hyperglycemia, Hypertension, Bone loss”. Moreover, the PDGF-AA/BB production entry in data set [2] (prednisone alone) is given as “did not appear to be a reduction in PDGF-AA/BB”. Also, the IL-8 production result in data set [2] (prednisone alone or PAM2CSK4, non-inflamed LPDC) is “did not appear to be a reduction in IL-8”. Moreover, in data set [2] (setting [7]), the GM-CSF production entry is on record as “did not appear to be a reduction in GM-CSF” and the MCP-1 production entry is recorded as “did not appear to be a reduction in MCP-1”. In addition, in data set [2] (setting [8]), the GM-CSF production entry is “reduced GM-CSF production”, the IL-8 production entry is given as “trend for reducing IL-8 production” and the MCP-1 production result is listed as “reduced MCP-1 production”. Besides, in data set [2] (prednisone, inflamed UC LPDC, endogenous or PAM2CSK4 induced), the IL-6 production result is listed as “reduce IL-6 production”. The IL-6 production entry in data set [2] (prednisone, non-inflamed LPDCs) is reported as “does not appear to have an effect”. For the same molecule, the PDGF-AA/BB production entry in data set [2] (prednisone, non-inflamed LPDCs (printed in the MIP-1b section)) is given as “trend for reducing PDGF-AA/BB production”. In addition, in data set [2] (prednisone, non-inflamed and inflamed LPDCs (stated in heading only)), the MIP-1b production entry is reported as “Tends to Reduce MIP-1b Production”. In data set [2] (setting [9]), the PDGF-AA/BB production result is reported as “trend for reducing PDGF-AA/BB production” and the RANTES production entry is “trend for reducing RANTES production”. In addition, the IL-9 production entry in data set [2] (prednisone, non-inflamed and inflamed UC LPDC, regardless of PAM2CSK4) is listed as “production is reduced; also recorded: significantly reduced”. The G-CSF production result in data set [2] (prednisone, non-inflamed or inflamed LPDCs, with and without PAM2CSK4) was “trend for reducing G-CSF production”. In data set [2] (prophylactic prednisone on-chip, noninflamed and inflamed UC resident immune cells), the “Inflammatory responses (secreted cytokines) to PAM2CSK4 treatment” value is reported as “suppresses the inflammatory responses”.

As to PAM2CSK4, in data set [3], the “Permeability of Caco-2 epithelial cell layer” value is given as “increase in permeability”. In addition, the “Loss of barrier function” value in data set [3] (PAM2CSK4 treatment, overnight incubation, 4 LP mil/ml) is “Loss of barrier function is shown”. For the same molecule, in data set [4] (unstimulated vs Pam stimulated), the IL-10 entry is reported as “no insignificant differences”. In addition, in data set [4] (antigen specific stimulation (PAM2CSK4) on-chip), the IL-8 entry is “increased”. Further, the IL-6 protein result in data set [4] is on record as “no significant differences”. Besides, the “Concentration of cytokine protein signaling” value in data set [5] (PAM2CSK4, TH1 (CD) and TH9 (UC) cells on-plates) is “increases in the concentration of cytokine protein signaling”. The IL-9 entry in data set [5] (PAM2CSK4 stimulation, TH1 populations) was “measurable; also recorded: did significantly increase”. In data set [5] (PAM2CSK4 stimulation, TH1 populations, log 2 fold change), the IRF4 entry was “measurable”. The “IL-9, or IL-9 activation factors, log 2 fold changes” value in data set [5] (PAM2CSK4 stimulation, TH9 populations in tissue culture plate) is given as “did not significantly increase”. Also, the “Avg. Z Height (z-arrow) of Caco-2 epithelial layer” value in the data set on Caco-2 epithelial layer came out at 84 um+/−11. The “IL-9 production, apical” value in data set [2] (PAM2CSK4, 1 and 2 LP mil/ml) was “increased”. For the same molecule, in data set [2] (PAM2CSK4, 4 LP mil/ml), the “IL-9 production, basal” value was “higher level of IL-9 production”. In addition, the IL-9 production result in data set [2] (PAM2CSK4, LP leukocyte co-cultures for each source) is “induce IL-9”; in data set [2] (PAM2CSK4, non-inflamed and inflamed UC LPDC co-cultures, over endogenous levels), “significantly induced IL-9 production”. For the same molecule, the IL6 response result is on record as “induce an IL6 response” in data set [2] (PAM2CSK4, epithelial cells without LP) and “induce an IL6 response” in data set [2] (PAM2CSK4, healthy LP leukocyte co-cultures). The IL-6 production result in data set [2] (PAM2CSK4, inflamed LPDC samples) is on record as “increased IL-6 production”; in data set [2] (PAM2CSK4, non-inflamed LPDC samples), “does not appear to have an effect”; in data set [2] (PAM2CSK4 at 1, 2 and 4 LP mil/ml vs co-cultures with no PAM2CSK4) it was “higher level of IL-6 production”. Further, the “Response (secreted cytokines) to PAM2CSK4” value in data set [6] is “stronger response”.

On to Tofacitinib (citrate), for which the IL-10 entry in data set [4] (mixture of PAM2CSK4 and Tofacitinib vs unstimulated cells) was “induced significant amounts”. Further, the IL-6 protein result in data set [4] is given as “no significant differences”.
